Results from article PMC12652113, “Fluorescent Albumin-Binding N-Propylbenzene Indolenine-Based Squaraines as Potential Candidates for Prostate Cancer Photodynamic Therapy Photosensitizers” (International Journal of Molecular Sciences, 2025).
“Also recorded” adds a separate entry of the source. Like-named read-outs stand apart in the source and are kept apart here.

Legend:
[1] = Singlet oxygen generation, 1,3-diphenylisobenzofuran (DPBF) assay; type: physicochemical; details: DMSO; LED irradiation; relative to benzoselenazole squaraine reference
Procedure: The ability of the squaraine dyes to generate singlet oxygen was assessed using the 1,3-diphenylisobenzofuran (DPBF) assay. In this method, squaraine solutions were incubated with DPBF and irradiated for different time intervals, followed by the monitoring of absorbance at 410 nm. A progressive decrease in DPBF absorbance was observed upon irradiation for all synthesized compounds, confirming their ability to produce this reactive oxygen species. However, it should be emphasized that the reference squaraine dye induced a sharp reduction in DPBF absorbance within a short irradiation period, with the decay being limited only by its intrinsic photoinstability.
Singlet oxygen production was assessed by monitoring the bleaching of 1,3-diphenylisobenzofuran (DPBF) at 410 nm. Fresh solutions of squaraine dyes (20 µM) and DPBF (0.1 mM) were introduced into 96-well plates, and decreases in absorbance were recorded before and after irradiation at defined time intervals. Quantum yields of singlet oxygen generation (ΦΔ) were determined by comparing the slopes of DPBF degradation for the squaraine dyes [S(dye)] with those of a benzoselenazole squaraine reference dye [S(ref), ΦΔ = 0.10], according to established linear regression procedures (Equation (1)). In parallel, photodegradation of the squaraines was monitored by following changes in their absorbance over time, with normalization applied to enable direct comparison across samples.(1) ΦΔdye=ΦΔref × Sdye/Sref

[2] = Aggregation behavior (Vis absorption in phosphate buffer, with or without Triton X-100); type: physicochemical; details: phosphate buffer vs DMSO
Procedure: Squaraine dyes were dissolved in dimethyl sulfoxide, whereas zinc phthalocyanine required dimethylformamide as a solvent. All stock solutions were prepared at 0.67 mM concentration and stored in the dark at 4 °C until further use. For spectroscopic characterization, 1.0 µM stock solutions of the squaraine dyes in dimethyl sulfoxide were serially diluted into a series of solvents (chloroform, dimethyl sulfoxide, methanol, and phosphate buffer) to obtain at least five defined concentrations. The absorption spectra of these dilutions were recorded and used to calculate molar extinction coefficients according to the Beer–Lambert law. Additional working solutions at a 1.0 µM concentration were prepared in dimethyl sulfoxide and buffer, and 1.0% Triton X-100 was added where required to investigate dye aggregation.

[3] = biological target: human serum albumin (HSA) (Homo sapiens, UniProt P02768); assay: Fluorometric squaraine-albumin binding titration; details: for detection limit (DL): HSA detection, DL=3σ/S; for quantification limit (QL): HSA quantification, QL=10σ/S; for fluorescence intensity without protein (F0): dye 2.0 µM in phosphate buffer, no HSA; for fluorescence intensity at the highest protein concentration (F): dye 2.0 µM, highest HSA concentration; for Stokes shift (ΔS) / absorption maximum (λabs) / emission maximum (λem) / fluorescence quantum yield (ΦF): phosphate buffer (pH 7.4), HSA presence; for F/F0: ratio of fluorescence with HSA to fluorescence without HSA; for incubation time to reach maximum fluorescence with HSA: room temperature, protected from light; for incubation time to reach maximum fluorescence with HSA / incubation time for maximum interaction with HSA: read at 0 min, 3 h, 24 h
Procedure: For fluorometric experiments, the squaraine stock solutions were initially prepared in dimethylformamide and subsequently diluted with phosphate buffer for the protein–dye interaction analysis. Human serum albumin stock solution was then added to these mixtures, while keeping the dye concentration fixed at 2.0 µM and varying the protein concentration from 0 to 3.0 µM (0.0 to 3.0 µM for squaraines 5, 9, and 11, and from 0 to 6.0 µM for squaraine 13). Fluorescence intensities of the resulting solutions were recorded after 0, 3, and 24 h of incubation with the protein. The excitation wavelengths and excitation/emission slit widths used for the measurements were optimized for each dye, as listed in Table 6.
The squaraine-albumin binding constants was calculated using the Benesi–Hildebrand equation (Equation (3)) based on the data obtained from the fluorescence experiments:(3) 1/Fx−F0=1/F∞−F0+1/Kb(F∞−F0)1/[HSA] where F0 is the fluorescence intensity of the squaraine in albumin-free buffer, Fx is the fluorescence observed after protein incubation at a specific concentration, F∞ is the fluorescence at the point of complete interaction, Kb is the binding constant, and [HSA] is the albumin concentration.
Quantification and detection limits (QL and DL, respectively) were determined from a calibration curve of maximum fluorescence intensity against protein concentration. The slope of this curve was then used to calculate the method’s sensitivity using Equations (4) and (5):(4) QL=10σ/S (5) DL=3σ/S where σ refers to the blank standard deviation and S (sensitivity) to the linear regression slope between the fluorescence intensity and albumin concentration.

[4] = tested on: normal human dermal fibroblasts (NHDF); assay: MTT dark and light-induced cytotoxicity in NHDF; type: cell-based; details: for IC50: Homo sapiens, 24 h incubation; for IC50 / Photodynamic ratio (PTR): NHDF; for Photodynamic ratio (PTR): IC50 dark/IC50 irradiated
Procedure: For potential applicability as photosensitizers in PDT, these candidates are expected to display cytotoxic effects only after photoactivation, namely, and preferably restricted to target tissue cells, without inducing damage to healthy counterparts. To evaluate this, prostate adenocarcinoma PC-3 cells and non-tumoral NHDF fibroblasts were incubated with increasing concentrations of the squaraine dyes for 24 h. Subsequently, the cells were irradiated using an LED system centered at 663 nm, a wavelength close to the absorption maximum of the monomeric dye forms. Twenty-four hours post-irradiation, cellular metabolic activity was assessed by the MTT assay.
The in cell photocytotoxicity of the squaraine dyes was assessed using the MTT assay. When cells reached 90–95% confluence, they were trypsinized using a trypsin-EDTA solution (0.125 g/L trypsin, 0.02 g/L EDTA), counted via trypan-blue exclusion in a Neubauer chamber, and diluted to 2 × 10^4 cells/mL. A 100 µL aliquot of this suspension was seeded into each well of 96-well plates and incubated for 48 h to allow for cell attachment and resumption of proliferation.
After this period, the medium was removed, and cells were treated with various concentrations of the squaraine dyes (0.01, 0.1, 1, 2.5, 5, and 10 µM) in the appropriate culture medium. […] Negative controls consisted of cells exposed only to culture medium. All experiments were performed in quadruplicate and independently repeated.
After 24 h of exposure to the dyes, the cells were subjected to two different irradiation conditions: the first group was not irradiated and was protected from ambient light for 21 min, and the second group was irradiated for 7 min.
Twenty-four hours post-irradiation, the culture medium was removed, cells were washed with 100 µL PBS, and 100 µL of MTT solution (5 mg/mL in serum- and antibiotic-free medium) was added per well. Cells were incubated for 4 h at 37 °C, after which the supernatant was discarded, and the formazan crystals were solubilized in dimethyl sulfoxide. Absorbance was measured at 570 nm using a Bio-Rad xMark microplate reader.
Cell viability was expressed as the percentage of absorbance in treated samples relative to the untreated negative control. Data were statistically analyzed by ordinary two-way ANOVA followed by the Šidák multiple comparisons test, comparing irradiated and non-irradiated conditions at the same concentration, with differences considered statistically significant at a p-value < 0.05. Half-maximal inhibitory concentration values reported in this work were obtained by fitting the data to a sigmoidal model with a 95% confidence interval. All assays were performed in quadruplicate and replicated independently at least twice. Phototoxicity and tumor selectivity ratios were quantified according to Equations (6) and (7):(6) PTR = IC50 dark condition/IC50 irradiated condition (7) TSR = IC50 for NHDF cells under irradiated condition/IC50 for cancer cell line under irradiated condition
Irradiation was performed using a light-emitting diode array centered at 663 ± 8 nm to match the absorption maximum of the dyes. The LED (Roithner; 8.3 mW radiant flux) was integrated into flat-bottom 96-well plates and powered by a regulated current source. The irradiance was 15.8 mW/cm^2, and the total energy delivered per well was 3.49 J after 7 min, ensuring precise light dosing for all experiments.

[5] = slope of fluorescence intensity vs HSA concentration
[6] = light or radiation study, Light, 7 min LED 663 nm, MTT 24 h post-irradiation
[7] = phosphate buffer, bound vs free

Chain of human serum albumin (HSA) (P02768 25-609): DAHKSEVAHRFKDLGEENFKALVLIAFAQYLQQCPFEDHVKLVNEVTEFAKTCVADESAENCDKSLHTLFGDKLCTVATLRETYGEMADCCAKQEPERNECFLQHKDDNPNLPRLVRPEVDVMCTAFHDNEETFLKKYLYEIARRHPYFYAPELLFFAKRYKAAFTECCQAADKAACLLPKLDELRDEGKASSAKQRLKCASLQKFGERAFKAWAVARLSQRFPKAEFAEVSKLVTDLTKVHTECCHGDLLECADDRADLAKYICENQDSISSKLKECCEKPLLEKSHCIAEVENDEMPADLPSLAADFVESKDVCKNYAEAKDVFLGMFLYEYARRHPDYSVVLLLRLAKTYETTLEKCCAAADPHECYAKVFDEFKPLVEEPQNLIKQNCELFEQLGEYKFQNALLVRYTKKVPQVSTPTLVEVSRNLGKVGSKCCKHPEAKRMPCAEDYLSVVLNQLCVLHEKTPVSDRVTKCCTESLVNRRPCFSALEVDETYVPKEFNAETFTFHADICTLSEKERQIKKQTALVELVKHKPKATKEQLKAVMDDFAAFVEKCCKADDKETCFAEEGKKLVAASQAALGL

SMILES	singlet oxygen quantum yield (ΦΔ) [1]	aggregation behavior [2]	detection limit (DL) [3]	quantification limit (QL) [3]	fluorescence intensity without protein (F0) [3]	fluorescence intensity at the highest protein concentration (F) [3]	Stokes shift (ΔS) [3]	absorption maximum (λabs) [3]	emission maximum (λem) [3]	fluorescence quantum yield (ΦF) [3]	F/F0 [3]	incubation time to reach maximum fluorescence with HSA [3]	sensitivity (S) [3, 5]	IC50 [4, 6]	IC50 ([4]; Dark, MTT 24 h later)	incubation time for maximum interaction with HSA [3]	Photodynamic ratio (PTR) [4]	sensitivity (S) [3]	other results
CC1(C)C(=CC2=C(NCc3ccc4ccc5cccc6ccc3c4c56)C(=CC3=[N+](CCCc4ccccc4)c4ccccc4C3(C)C)C2=O)N(CCCc2ccccc2)c2ccccc21.[I-] [Dye 14, 2-({3-[3,3-dimethyl-1-(3-phenylpropyl)indolin-2-ylidenemethyl]-4-oxo-2-[(pyren-1-ylmethyl)amino]cyclobut-2-en-1-ylidene}methyl)-3,3-dimethyl-1-(3-phenylpropyl)-indol-1-ium Iodide]	<0.01	predominantly form J-aggregates	361 nM	1203 nM	4.12 a.u.	115.89 a.u.	4 nm	663 nm	667 nm	0.01	28.13	24 h	39 µM	> 10 µM	> 10 µM	–	–	–	–
CNC1=C(C=C2N(CCCc3ccccc3)c3ccccc3C2(C)C)C(=O)C1=CC1=[N+](CCCc2ccccc2)c2ccccc2C1(C)C.[I-] [Dye 11, 2-{3-[3,3-Dimethyl-1-(3-phenylpropyl)indolin-2-ylidenemethyl]-2-(methylamino)-4-oxocyclobut-2-en-1-ylidenemethyl}-3,3-dimethyl-1-(3-phenylpropyl)-indol-1-ium Iodide]	<0.01	coexistence of H- and J-type aggregates; also recorded: lowest tendency to aggregate	420 nM	1401 nM	1.00 a.u.	360.94 a.u.	10 nm	652 nm	662 nm	0.04	–	–	119 µM	3.24 µM	6.57 µM	immediately upon addition to the protein solution	2.0	–	–
CC1(C)C(=CC2=C([O-])C(=CC3=[N+](CCCc4ccccc4)c4ccccc4C3(C)C)C2=O)N(CCCc2ccccc2)c2ccccc21 [Dye 5, 4-[3,3-Dimethyl-1-(3-phenylpropyl)-indol-1-ium-2-ylmethylene]-2-[3,3-dimethyl-1-(3-phenylpropyl)indolin-2-ylidenemethyl]-3-oxocyclobut-1-en-1-olate]	<0.01	coexistence of H- and J-type aggregates	266 nM	886 nM	11.46 a.u.	680.15 a.u.	45 nm	604 nm	649 nm	0.20	59.35	24 h	209000 nM⁻¹	7.41 µM	> 10 µM	–	>1.4	209000 nM⁻¹	blue shift in maximum emission wavelength upon HSA binding [3, 7]: 47 nm; reduction in Stokes shift upon HSA binding [3, 7]: 50%; reduction in viability ([4]; normal fibroblasts, irradiated, up to 2.5 μM): ≤ 30%
CC1(C)C(=CC2=C(N)C(=CC3=[N+](CCCc4ccccc4)c4ccccc4C3(C)C)C2=O)N(CCCc2ccccc2)c2ccccc21.[I-] [Dye 9, 2-{2-Amino-3-[3,3-dimethyl-1-(3-phenylpropyl)indolin-2-ylidenemethyl]-4-oxocyclobut-2-en-1-ylidenemethyl}-3,3-dimethyl-1-(3-phenylpropyl)-indol-1-ium Iodide]	<0.01	coexistence of H- and J-type aggregates	324 nM	1079 nM	9.30 a.u.	917.53 a.u.	8 nm	651 nm	659 nm	0.07	98.66	–	318 µM	3.79 µM	6.8 µM	immediately upon addition to the protein solution	1.8	318000 nM⁻¹	–
